In US7285618B1, “Polypeptides having neutrophil stimulating activity” (Japan Tobacco Inc., priority 2000, dated 2007):
Read-outs that look alike come from different tables or passages of the source. Where no end group is shown, it is not given here.

Legend:
HL60 cells = format: cell-based, human
[1] = tested on: monocyte and lymphocyte mixed cells; experiment: β-HA secretion from monocyte and lymphocyte mixed cells; format: cell-based, human
[2] = tested on: differentiated HL60 cells; experiment: Intracellular Ca2+ concentration (fura-2), differentiated HL60 cells; format: cell-based, human; conditions: for increase of intracellular Ca2+ concentration in the absence of extracellular Ca2+: absence of Ca2+ (−) versus presence (+); for increase in intracellular Ca2+ concentration upon stimulation after PTX treatment: cells treated with 50 ng/ml PTX for 16 hours; for intracellular Ca2+ concentration: differentiated HL60 cells (+); for intracellular Ca2+ concentration with or without extracellular Ca2+: extracellular Ca2+ present or not
Description: (§1) The differentiated HL60 cells or undifferentiated HL60 cells were washed twice with a Hepes-Na solution (140 mM NaCl, 4 mM KCl, 1 mM NaH2PO4, 1 mM MgCl2, 1.25 mM CaCl2, 5 mM Hepes, 11 mM glucose, 0.2% BSA, pH 7.4). Then, Ca^2+ sensitive fluorescence reagent, fura-2/AM, was added to the cell suspension (4 ml: final concentration, 4 μM). The reaction mixture was then shaken gently at room temperature for 60 minutes, shielded from light in order to incorporate fura-2 into the HL60 cells. Subsequently, the cells were washed twice with a Hepes-Na solution and a cell suspension was prepared at a final cell density of 1.0×10^6 cells/ml. One milliliter of the cell suspension was put into reaction cuvettes and stimulated with various samples under stirring at 30° C. Ratios of fluorescence intensity at 500 nm (F) for an excitation wavelength at 340 nm to that at 380 nm were measured with a fluorimeter (CAF-100, Japan Spectroscopic Co., Ltd.) and [Ca^2+]i was calculated following the formula: [Ca^2+]i(nM)=K×{(F−Fmin)/(Fmax−F)}×A/B, wherein
(§2) Fmax: a ratio of fluorescence intensity at 500 nm for an excitation wavelength at 340 nm to that at 380 nm after all cells were solubilized with 0.1% Triton X-100;
(§3) Fmin: a ratio of fluorescence intensity at 500-nm for an excitation wavelength at 340 nm to that at 380 nm after the whole calcium was chelated with 4 mM EGTA;
(§4) A: fluorescence intensity at 500-nm for an excitation wavelength at 380 nm, when all the calcium was chelated with EGTA;
(§5) B: fluorescence intensity at 500-nm for an excitation wavelength at 380 nm, when all cells were solubilized with Triton X-100;
(§6) K: 224 (nM) (the dissociation constant of fura-2).

[3] = tested on: differentiated HL60 cells
Description: (§7) The differentiated HL60 cells and human leukocyte cells were washed three times with ice-cooled 0.1% BSA containing Hepes buffered Hank's solution (HBHS; 10 mM Hepes, 136.9 mM NaCl, 5.4 mM KCl, 1.2 mM CaCl2, 0.44 mM KH2PO4, 0.49 mM MgCl2, 0.41 mM MgSO4, 0.34 mM Na2HPO4, 5.5 mM glucose, 4.2 mM NaHCO3, pH 7.4). A cell suspension was prepared for each cell type at 5.5×10^6 cells/ml. Cytochalasin B and DNase I were then added to each cell suspension at a final concentration of 5 μg/ml. Ninety μl of each cell suspension was then transferred to an ice-cooled tube (5.0×10^5 cells/tube) and incubated at 37° C. for 10 minute. To each tube, either one of the fractions of polypeptide (or extract) in solution (10 μl) was added and incubated at 37° C. for 10 minutes to stimulate the cells. Immediately after the treatment, 200 μl of ice-cooled reaction quenching buffer (25 mM Tris, 123 mM NaCl, 2.7 mM KCl, pH 7.4) was added to the cell suspensions to stop the stimulation. Thereafter, the tubes were spun down at 4° C. for 60 seconds to precipitate the cell pellets and the β-HA activity and the lactate dehydrogenase (LDH) activity in the supernatant were measured.
(§8) The amount of LDH secreted into the reaction mixture was determined by measuring the absorbance (340 nm) of NADH generated by reduction of that NAD involves dehydrogenation of lactate. Reaction was initiated by adding a 400 μl of a substrate-buffer solution (125 mM 2-amino-2-methyl-1-propanol, 125 mM lithium lactate, 6.25 mM NAD, pH 9.5) to a 100 μl of the reaction supernatant. Following a 1-hr incubation at 37° C., the mixture was quenched in ice water to stop the reaction and the absorbance at 340 nm was measured.
(§9) The LDH enzyme activity secreted in the reaction mixture was expressed as the percentage of the total enzyme activity in cells (%/total) which was the enzyme activity of LDH released upon disruption of the cells with 0.05% Triton X-100.

[4] = tested on: undifferentiated HL60 cells; experiment: Intracellular Ca2+ concentration (fura-2), undifferentiated HL60 cells; format: cell-based, human
Description: as §1, §2, §3, §4, §5, §6

G protein (Gi) = experiment: GTPase activity of purified Gi reconstituted on a phospholipid membrane; format: biochemical, rabbit; conditions: 3 μM
Text: G protein (Gi), which is present in neutrophils and involved in […] of fMLP, was extracted from the rabbit liver and purified (J. Biol. Chem. 267, 16237-16243, 1992). The purified Gi was reconstituted on a phospholipid membrane, and it was challenged by fCyt b (1-15) or COSP-1. We measured GTPase activity for these stimulations.

[5] = tested on: differentiated HL60 cells; experiment: LDH leakage from HL60 cells
Description: as §7, §8, §9

fMLP receptor = target: T1, fMLP receptor (Homo sapiens, UniProt P21462); experiment: [3H]fMLP binding to the fMLP receptor on differentiated HL60 cells; conditions: [3H]fMLP 50 nM, 22° C., 60 minutes; COSP-1 up to 10 μM
T1 construct: fMLP receptors are expressed on the surfaces of the cells as they differentiate into neutrophil-like cells; endogenous in cells; host or cells: HL60 cells differentiated with db-cAMP (whole cells)
T1 sequence (P21462 1-350): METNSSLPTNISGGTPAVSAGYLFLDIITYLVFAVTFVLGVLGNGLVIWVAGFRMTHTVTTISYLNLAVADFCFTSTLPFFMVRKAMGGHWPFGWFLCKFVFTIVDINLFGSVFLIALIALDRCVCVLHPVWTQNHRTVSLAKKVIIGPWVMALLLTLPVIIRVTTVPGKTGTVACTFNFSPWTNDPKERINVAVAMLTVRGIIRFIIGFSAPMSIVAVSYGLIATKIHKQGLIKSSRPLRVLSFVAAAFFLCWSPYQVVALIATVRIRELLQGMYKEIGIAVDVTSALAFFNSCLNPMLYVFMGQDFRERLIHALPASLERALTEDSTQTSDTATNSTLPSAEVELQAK
Description: The binding study of COSP-1 to the fMLP receptor was done using the differentiated HL60 cells. The differentiated HL60 cells were washed twice with HBHS. Then, the cells were suspended at 3.1×10^7 cells/ml and this suspension was transferred to tubes (2.5×10^6 cells/80 μl) and incubated at 22° C. for 10 minutes. Subsequently, various concentrations of COSP-1 or fMLP (10 μl) were added and incubated at 22° C. for 5 minutes. Thereafter, 10 μl of [^3H]fMLP (final concentration at 50 nM) was added and reaction was performed at 22° C. for 60 minutes. By adding 500 μl of ice-cooled PBS-BSA (10 mM phosphate, 120 mM NaCl, 0.5% BSA), the reaction was stopped. The treated cell suspension was then passed through a glass-fiber filter (Whatman GF/C) and the filter was washed three times with ice-cooled PBS-BSA (2 ml) to remove [^3H]fMLP not bound to the cells. The glass-fiber filter was dried and a scintillant was added to a solution for radioactivity measurement.
The measurements of binding of the fMLP to the fMLP receptors were expressed as the percentage (%/total) for a maximum binding which was shown as the radioactivity of [^3H]fMLP having specific binding to the receptors in the absence of an unlabelled ligand.

Compound | β-HA secretion to the undifferentiated HL60 cells (HL60 cells) | β-HA secretion from monocyte and lymphocyte mixed cells (%/total) [1] [%/total] | secretion of β-HA in the monocyte and lymphocyte mixed cells ([1]; stimulation with 10 μM) [%] | increase of intracellular Ca2+ concentration in the absence of extracellular Ca2+ [2] | increase in intracellular Ca2+ concentration upon stimulation after PTX treatment [2] | intracellular Ca2+ concentration [2] | intracellular Ca2+ concentration with or without extracellular Ca2+ [2] | LDH leakage from the HL60 cells [3] | intracellular Ca2+ concentration [4] | stimulation of the GTPase activity of Gi (G protein (Gi)) | LDH leakage from the HL60 cells ([5]; Example 6) | LDH leakage out of the cells ([5]; differentiated HL60 cells, Example 4) | inhibition of the specific binding between [3H]fMLP and fMLP receptors (fMLP receptor)
CSCC[C@H](NC=O)C(=O)N[C@@H](CC(C)C)C(=O)N[C@@H](Cc1ccccc1)C(=O)O [fMLP, formyl methionyl-leucyl-phenylalanine, reference compound] | Neither COSP-1 nor fMLP caused the β-HA secretion | 21.8 ± 5.3 | 21.8±5.3 | reduced | almost completely inhibited | increased | increased irrespective of whether extracellular Ca^2+ was present or not | neither of COSP-1 and fMLP caused LDH leakage | did not increase |  |  |  | 
LSFLIPAGWVLSHLDHYKRSSAA-OH [COSP-1] | Neither COSP-1 nor fMLP caused the β-HA secretion |  |  | reduced | almost completely inhibited | increased | increased irrespective of whether extracellular Ca^2+ was present or not |  | did not increase | about 6 fold | neither of COSP-1 and fMLP caused LDH leakage | no LDH was found to leak out | not by COSP-1 even when its final concentration was reacted to 10 μM
